Where “and” joins values, the source holds several entries; their conditions need not be identical. Equal entries are not always repeated.

This note sets out measurements from patent US12631620B2, “Methods of generating organoids for high throughput screening of drugs” (Yissum Research Development Company of the Hebrew …, priority 2019, dated 2026).

What all share (assay type): cell-based
For series [1], the system named is E6/E7^LOW human hepatocytes. The series can be described thus: Steatosis and phospholipidosis, HCS LipidTOX detection kit, hepatocyte cultures. The procedure:
Quantification of Apoptotic index was performed using DeadEnd™ fluorometric TUNEL System (Promega) according to manufacturer directions. Briefly, cells were treated with TC20 concentrations of compounds dissolved in culture medium for 24 hours, and subsequently fixed in 4% Paraformaldehyde (PFA). Cells were then permeabilized and exposed to fluorescein-12-dUTP and terminal deoxynucleotidyl transferase (TdT). The reaction was subsequently stopped and the cells counterstained with 1 μg/mL Hoechst 33258. Apoptotic cells were positive for green fluorescence in the nucleus. Percentage apoptosis was defined as the number of TUNEL positive nuclei normalized to Hoechst 33258 positive nuclei. Quantification of Steatosis was performed using HCS LipidTOX™ Phospholipidosis and Steatosis Detection Kit (ThermoFisher). Briefly, differentiated cells were incubated with different concentrations of compounds dissolved in culture medium and 1× Phospholipidosis Detection Reagent for 48 hours, subsequently fixed in 4% PFA. Cells were then stained with 1× LipidTOX™ for 20 minutes and counterstained with 1 μg/mL Hoechst 33258. Staining intensity was normalized to number of Hoechst 33258 positive nuclei. Quantification of Bile Secretion was performed using 5(6)-carboxy-2′,7′-dichlorofluorescein diacetate (CDFDA) staining. Briefly, differentiated cells were incubated with different concentrations of compounds dissolved in culture medium for 24 hours. Cells were then treated with 10 μg/mL CDFDA and 1 μg/mL Hoechst 33342 for 30 minutes. Incubation medium was removed and cultures washed with ice-cold PBS containing calcium and magnesium. Staining intensity was normalized to number of Hoechst 33342 positive nuclei. Analysis excluded Intracellular CDFDA staining based on intensity and phase images. All quantifications were made in comparison to cells treated with melatonin as negative control.
Quantification of Apoptotic index was performed using DeadEnd™ fluorometric TUNEL System (Promega) according to manufacturer directions. Briefly, cells were treated with TC20 concentrations of compounds dissolved in culture medium for 24 hours, and subsequently fixed in 4% Paraformaldehyde (PFA). Cell were then permeabilized and exposed to fluorescein-12-dUTP and terminal deoxynucleotidyl transferase (TdT). The reaction was subsequently stopped and the cells counterstained with 1 μg/mL Hoechst 33258. Apoptotic cells were positive for green fluorescence in the nucleus. […] Quantification of Steatosis was performed using HCS LipidTOX™ Phospholipidosis and Steatosis Detection Kit (ThermoFisher). […] Quantification of Bile Secretion was performed using 5(6)-carboxy-2′,7′-dichlorofluorescein diacetate (CDFDA) staining. […] All quantifications were made in comparison to cells treated with melatonin as negative control.

Series [2] deals with E6/E7^LOW human hepatocytes. Nature of the series: Bile secretion, CDFDA staining. The conditions noted are these: p<0.05, n=4. The procedure: Quantification of Apoptotic index was performed using DeadEnd™ fluorometric TUNEL System (Promega) according to manufacturer directions. Briefly, cells were treated with TC20 concentrations of compounds dissolved in culture medium for 24 hours, and subsequently fixed in 4% Paraformaldehyde (PFA). Cells were then permeabilized and exposed to fluorescein-12-dUTP and terminal deoxynucleotidyl transferase (TdT). The reaction was subsequently stopped and the cells counterstained with 1 μg/mL Hoechst 33258. Apoptotic cells were positive for green fluorescence in the nucleus. Percentage apoptosis was defined as the number of TUNEL positive nuclei normalized to Hoechst 33258 positive nuclei. Quantification of Steatosis was performed using HCS LipidTOX™ Phospholipidosis and Steatosis Detection Kit (ThermoFisher). […] Quantification of Bile Secretion was performed using 5(6)-carboxy-2′,7′-dichlorofluorescein diacetate (CDFDA) staining. […] All quantifications were made in comparison to cells treated with melatonin as negative control.
Quantification of Apoptotic index was performed using DeadEnd™ fluorometric TUNEL System (Promega) according to manufacturer directions. […] Apoptotic cells were positive for green fluorescence in the nucleus. […] Quantification of Steatosis was performed using HCS LipidTOX™ Phospholipidosis and Steatosis Detection Kit (ThermoFisher). […]

The subject of series [3] is E6/E7^LOW human hepatocytes. Nature of the series: E6/E7LOW human hepatocyte viability assessment (LIVE/DEAD Cytotoxicity kit). The conditions noted are these: 24 hours. As to the method:
E6/E7^LOW human hepatocyte were cultured with different concentrations of compounds dissolved in culture medium for 24 hours. Cell viability was subsequently determined using LIVE/DEAD Cytotoxicity kit (Molecular Probes, USA) according to manufacturer directions. Briefly, cultures were incubated for 30 minutes with 2 μM calcein AM and 3 μM ethidium homodimer-1. Live cells were positive for green fluorescence due to hydrolysis of the acetoxymethyl ester group by intracellular esterases. Dead cells were positive for red fluorescence due to ethidium homodimer-1 binding intracellular DNA, possible in […]. Cellular viability was expressed as live over dead ratio and normalized based on negative (DMSO/DDW/EtOH) and positive (0.1% Saponin) controls. Fluorescence micrographs were analyzed for total fluorescence using ImageJ for 12 repeats for each sample. TC50 and TC20 concentrations were calculated using MATLAB® Curve Fitting Tool. Results were fitted to a sigmoidal curve (Prentice, 1976; Wenner et al., 2011). Error bars indicate ±SE.

Series [4] deals with E6/E7^LOW human hepatocytes. The series can be described thus: Apoptotic index, DeadEnd fluorometric TUNEL System. The note with it: 24 hours exposure.

On to `Cc1cn([C@H]2C=C[C@@H](CO)O2)c(=O)[nH]c1=O` [Stavudine], for which, in series [1], the phospholipidosis result is “not”. In addition, in series [1] (p<0.001, n=4), the neutral lipids result is “strong and significant increase”. In addition, the bile secretion entry in series [2] is “mild inhibition”. In addition, the TC50 in series [3] is 800 µM and 800 ± 60 µM. The apoptosis result in series [4] was “no evidence of apoptosis”.
